Data from article PMC12844124, “Synthesis and Study of Substituted Chalcones Combined with Fluoroazobenzenes—New Photoswitches for Application in Biological Systems” (Molecules, 2026).

Legend:
Type in all cases: physicochemical
[1] = Photostationary state (PSS) composition by 19F NMR; conditions: irradiation 525 nm, DMSO-d6
Text: Azo compounds have been applied in various fields due to their ability to undergo structural changes, with one of the most interesting applications being the direct conversion of light into mechanical energy. However, azobenzenes generally face two main limitations that hinder their practical use in biological and materials sciences. The first is the need for UV light to induce the E→Z isomerization through π→π* excitation, which can potentially interfere with and damage the surrounding environment. The second limitation is the typically incomplete reverse Z→E photoisomerization, which is induced by irradiation in the visible region. In this region, the n→π* bands of the E and Z isomers largely overlap, making it difficult to achieve E-rich photostationary states (PSSs) after back-switching. These limitations can be overcome by modifying azobenzene in such a way that the n→π* bands of the E and Z isomers are sufficiently separated. If the separation is large enough, the two n→π* bands can be distinct, allowing visible light to selectively isomerize both isomers with high to complete E/Z photoconversions. We are looking for switches that operate within the visible light range of 380–750 nm, which is harmless. Fluorine-substituted azobenzenes are well-suited for designing visible-light-responsive systems, offering stable and bidirectional photoconversions along with tissue-compatible properties. We confirmed that the compounds we synthesized successfully dock with tubulin. In the next step, we tested whether the added azo compound would meet our expectations as a visible light switch. For this purpose, we used NMR spectroscopy. We measured ^19F spectra of (17a–17c, 17e–17g, and 17i–17l) at nine wavelengths from 390 nm to 610 nm to check which wavelengths produce the most Z isomer after exposure (see Section S4.2 in Supplementary Materials). We selected DMSO as the solvent due to its ability to dissolve both polar and nonpolar molecules, which is essential for the analytical methods employed in this study. Its intermediate polarity also makes it a good surrogate for both organic and aqueous solvents. Additionally, DMSO is commonly used for preparing stock solutions, which are then illuminated and diluted into aqueous systems for assessing biological activity. […]
Figure 2 (a) Photostationary state (PSS) compositions for chalcones (17a–17c, 17e–17g, and 17i–17l) determined by ^19F NMR analysis (c ≈ 100 mM in DMSO-d6), presented in a bar chart; (b) representative multiple photoswitching rounds of 60 µM of (17j) in DMSO by pulsed green (525 nm) and blue (430 nm) light illumination. The photochemical stability of the drug is analyzed via repeated cycles of irradiation (software: Microsoft Excel).

[2] = UV–VIS spectra of E/Z isomers in DMSO
Description: For this purpose, the UV–VIS spectra were measured for all synthesized hybrids (17a–17l) at concentrations from 20 to 500 µM in dimethyl sulfoxide (DMSO) in light at λ 505 nm and for (17a–17c), (17e–17g), and (17i–17l) at λ 525 nm, respectively, as detailed in Table 1 (see Section S4.4 in Supplementary Materials).

[3] = Changes over time of Z to E transition by 19F NMR; conditions: light 525 nm, 100 mM in DMSO
Text: We can observe that for electromagnetic radiation in the range of wavelengths 390 nm to 610 nm, transitions from E to Z of about 0–76% are obtained. The best results for all compounds are in visible wavelengths 505 nm or 525 nm (30.59–75.44%). From analyzing Figure 2 we can draw the following conclusions: all synthesized compounds undergo switching under visible light (this is important because UV radiation can damage the DNA of cells, inhibiting replication and, as a result, preventing cell division). For the 2,6-difluoro substituents (17i), (17j), (17k), and (17l) with values of 74.84%, 73.2%, 74.39%, and 75.44%, respectively, the largest share of the Z configuration is at (525 nm) and, for the rest of (17a), (17b), (17c), (17e), (17f), and (17g), it is in range of 30.57–47.13% at 505 nm. […] Multiple cycles of photoreversible switching under alternating green and blue light irradiation, with no significant photobleaching or degradation, confirmed the repeatable and robust photochromic conversion of the synthesized azobenzenes (Figure 2b). Then we measured changes over time (transitions from Z to E, upon irradiation with 505 nm for (17a–17c) and (17e–17g), and 525 nm for (17i–17l) compounds (Figure 3, and see Section S4.3 in Supplementary Materials).

share of the Z configuration (PSS) [1]: 73.2%
εmax (n→π*) ([2]; E isomer): 922 dm^3·mol^−1·cm^−1
λmax n→π* (E) ([2]; E isomer): 448.3 nm
εmax (n→π*) ([2]; Z isomer): 1130 dm^3·mol^−1·cm^−1
λmax n→π* (Z) ([2]; Z isomer): 417.4 nm
Δ λmax n→π* ([2]; between E and Z isomers): 30.9 nm
Z isomer, changes over time ([3]; 0 h): 73.2%
Z isomer, changes over time ([3]; 1 h): 72.55%
Z isomer, changes over time ([3]; 2 h): 71.89%
Z isomer, changes over time ([3]; 3 h): 71.23%
Z isomer, changes over time ([3]; 4 h): 71%
Z isomer, changes over time ([3]; 5 h): 70.01%
Z isomer, changes over time ([3]; 6 h): 69.58%
Z isomer, changes over time ([3]; 7 h): 69.12%
Z isomer, changes over time ([3]; 8 h): 67.9%
Δ (Z to E change 0 h to 8 h) [3]: 5.3%
SMILES: COc1cc(/C=C/C(=O)c2cccc(/N=N/c3c(F)cccc3F)c2)cc(OC)c1 [Compound 17j]
